Assay results taken from ChEMBL document CHEMBL4014351, “Discovery of Allosteric Inhibitors Targeting the Spliceosomal RNA Helicase Brr2” (J Med Chem, 2017).
pIC50: −log10 of the molar value. Values after ≈ are worked out from the molar mass of the structure shown.

Key:
[1] = target: T1, U5 small nuclear ribonucleoprotein 200 kDa helicase (Homo sapiens, UniProt O75643); experiment: biochemical
Description: Inhibition of full length recombinant human N-terminal His-tagged BRR2 RNA dependent ATPase activity expressed in baculovirus infected Sf9 cells using single stranded poly(U) RNA as substrate after 30 mins by ADP-Glo luminescence assay

[2] = target: Eukaryotic initiation factor 4A-I (Homo sapiens, UniProt P60842)
Description: Inhibition of eIF4G-induced full length recombinant human N-terminal His6/SUMO-tagged eIF4A1 RNA dependent ATPase activity expressed in Escherichia coli BL21(DE3) using single stranded poly(U) RNA as substrate after 30 mins by ADP-Glo luminescence assay

[3] = target: Eukaryotic initiation factor 4A-III (Homo sapiens, UniProt P38919)
Description: Inhibition of MLN51-induced full length recombinant human N-terminal His6/SUMO-tagged eIF4A3 RNA dependent ATPase activity expressed in Escherichia coli BL21(DE3) using single stranded poly(U) RNA as substrate after 30 mins by ADP-Glo luminescence assay

physchem [4] = conditions: aqueous buffer, pH 6.8
Description: Solubility of the compound in pH 6.8 aqueous buffer by UV absorbance method

physchem [5] = conditions: PAMPA, pH 7.4
Description: Permeability of the compound at 10 uM at pH 7.4 after 3 hrs by PAMPA

physchem [6] = conditions: 1-octanol/aqueous buffer, pH 7.4
[7] = target: T2, ATP-dependent RNA helicase DHX29 (Homo sapiens, UniProt Q7Z478); experiment: biochemical
T2 sequence (Q7Z478 whole entry): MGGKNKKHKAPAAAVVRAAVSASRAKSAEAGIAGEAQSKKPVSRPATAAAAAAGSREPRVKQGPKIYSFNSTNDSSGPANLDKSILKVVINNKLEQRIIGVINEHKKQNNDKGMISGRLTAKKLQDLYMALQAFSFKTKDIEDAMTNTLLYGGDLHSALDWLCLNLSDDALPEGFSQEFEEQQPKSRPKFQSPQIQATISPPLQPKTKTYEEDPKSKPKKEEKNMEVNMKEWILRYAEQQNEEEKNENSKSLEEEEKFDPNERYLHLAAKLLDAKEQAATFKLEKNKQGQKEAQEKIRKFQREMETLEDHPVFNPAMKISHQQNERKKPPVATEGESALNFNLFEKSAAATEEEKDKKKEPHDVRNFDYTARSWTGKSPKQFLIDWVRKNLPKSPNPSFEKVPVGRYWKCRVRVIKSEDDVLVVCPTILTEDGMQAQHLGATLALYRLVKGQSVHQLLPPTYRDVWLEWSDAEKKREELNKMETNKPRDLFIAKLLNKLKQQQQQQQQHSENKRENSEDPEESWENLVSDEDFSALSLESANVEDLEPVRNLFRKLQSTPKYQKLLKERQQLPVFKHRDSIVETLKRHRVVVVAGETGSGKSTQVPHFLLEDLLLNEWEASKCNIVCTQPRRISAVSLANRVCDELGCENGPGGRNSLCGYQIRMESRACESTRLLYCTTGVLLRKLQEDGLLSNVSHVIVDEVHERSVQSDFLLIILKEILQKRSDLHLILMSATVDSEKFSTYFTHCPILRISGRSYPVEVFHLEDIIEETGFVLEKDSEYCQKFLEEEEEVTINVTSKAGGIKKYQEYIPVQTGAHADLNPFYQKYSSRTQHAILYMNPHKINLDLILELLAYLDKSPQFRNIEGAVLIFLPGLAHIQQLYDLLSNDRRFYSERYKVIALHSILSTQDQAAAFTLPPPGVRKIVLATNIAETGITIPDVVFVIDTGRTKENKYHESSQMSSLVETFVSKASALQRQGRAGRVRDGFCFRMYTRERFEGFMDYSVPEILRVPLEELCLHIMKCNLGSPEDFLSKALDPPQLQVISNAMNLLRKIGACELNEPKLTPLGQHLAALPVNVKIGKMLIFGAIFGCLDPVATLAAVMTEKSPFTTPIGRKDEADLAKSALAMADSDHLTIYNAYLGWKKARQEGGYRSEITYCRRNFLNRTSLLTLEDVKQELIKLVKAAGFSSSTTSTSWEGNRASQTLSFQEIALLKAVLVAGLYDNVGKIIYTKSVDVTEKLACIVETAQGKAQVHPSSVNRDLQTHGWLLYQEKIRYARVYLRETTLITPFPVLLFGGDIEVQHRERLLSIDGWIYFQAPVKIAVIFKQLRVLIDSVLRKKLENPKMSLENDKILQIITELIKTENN
Description: Inhibition of full length recombinant human N-terminal FLAG-His-tagged DHX29 RNA dependent ATPase activity expressed in baculovirus infected Sf9 insect cells using single stranded poly(U) RNA as substrate after 30 mins by ADP-Glo luminescence assay

[8] = target: T1, U5 small nuclear ribonucleoprotein 200 kDa helicase; experiment: biochemical; remark: listed apart in the source

T1 sequence (O75643 whole entry): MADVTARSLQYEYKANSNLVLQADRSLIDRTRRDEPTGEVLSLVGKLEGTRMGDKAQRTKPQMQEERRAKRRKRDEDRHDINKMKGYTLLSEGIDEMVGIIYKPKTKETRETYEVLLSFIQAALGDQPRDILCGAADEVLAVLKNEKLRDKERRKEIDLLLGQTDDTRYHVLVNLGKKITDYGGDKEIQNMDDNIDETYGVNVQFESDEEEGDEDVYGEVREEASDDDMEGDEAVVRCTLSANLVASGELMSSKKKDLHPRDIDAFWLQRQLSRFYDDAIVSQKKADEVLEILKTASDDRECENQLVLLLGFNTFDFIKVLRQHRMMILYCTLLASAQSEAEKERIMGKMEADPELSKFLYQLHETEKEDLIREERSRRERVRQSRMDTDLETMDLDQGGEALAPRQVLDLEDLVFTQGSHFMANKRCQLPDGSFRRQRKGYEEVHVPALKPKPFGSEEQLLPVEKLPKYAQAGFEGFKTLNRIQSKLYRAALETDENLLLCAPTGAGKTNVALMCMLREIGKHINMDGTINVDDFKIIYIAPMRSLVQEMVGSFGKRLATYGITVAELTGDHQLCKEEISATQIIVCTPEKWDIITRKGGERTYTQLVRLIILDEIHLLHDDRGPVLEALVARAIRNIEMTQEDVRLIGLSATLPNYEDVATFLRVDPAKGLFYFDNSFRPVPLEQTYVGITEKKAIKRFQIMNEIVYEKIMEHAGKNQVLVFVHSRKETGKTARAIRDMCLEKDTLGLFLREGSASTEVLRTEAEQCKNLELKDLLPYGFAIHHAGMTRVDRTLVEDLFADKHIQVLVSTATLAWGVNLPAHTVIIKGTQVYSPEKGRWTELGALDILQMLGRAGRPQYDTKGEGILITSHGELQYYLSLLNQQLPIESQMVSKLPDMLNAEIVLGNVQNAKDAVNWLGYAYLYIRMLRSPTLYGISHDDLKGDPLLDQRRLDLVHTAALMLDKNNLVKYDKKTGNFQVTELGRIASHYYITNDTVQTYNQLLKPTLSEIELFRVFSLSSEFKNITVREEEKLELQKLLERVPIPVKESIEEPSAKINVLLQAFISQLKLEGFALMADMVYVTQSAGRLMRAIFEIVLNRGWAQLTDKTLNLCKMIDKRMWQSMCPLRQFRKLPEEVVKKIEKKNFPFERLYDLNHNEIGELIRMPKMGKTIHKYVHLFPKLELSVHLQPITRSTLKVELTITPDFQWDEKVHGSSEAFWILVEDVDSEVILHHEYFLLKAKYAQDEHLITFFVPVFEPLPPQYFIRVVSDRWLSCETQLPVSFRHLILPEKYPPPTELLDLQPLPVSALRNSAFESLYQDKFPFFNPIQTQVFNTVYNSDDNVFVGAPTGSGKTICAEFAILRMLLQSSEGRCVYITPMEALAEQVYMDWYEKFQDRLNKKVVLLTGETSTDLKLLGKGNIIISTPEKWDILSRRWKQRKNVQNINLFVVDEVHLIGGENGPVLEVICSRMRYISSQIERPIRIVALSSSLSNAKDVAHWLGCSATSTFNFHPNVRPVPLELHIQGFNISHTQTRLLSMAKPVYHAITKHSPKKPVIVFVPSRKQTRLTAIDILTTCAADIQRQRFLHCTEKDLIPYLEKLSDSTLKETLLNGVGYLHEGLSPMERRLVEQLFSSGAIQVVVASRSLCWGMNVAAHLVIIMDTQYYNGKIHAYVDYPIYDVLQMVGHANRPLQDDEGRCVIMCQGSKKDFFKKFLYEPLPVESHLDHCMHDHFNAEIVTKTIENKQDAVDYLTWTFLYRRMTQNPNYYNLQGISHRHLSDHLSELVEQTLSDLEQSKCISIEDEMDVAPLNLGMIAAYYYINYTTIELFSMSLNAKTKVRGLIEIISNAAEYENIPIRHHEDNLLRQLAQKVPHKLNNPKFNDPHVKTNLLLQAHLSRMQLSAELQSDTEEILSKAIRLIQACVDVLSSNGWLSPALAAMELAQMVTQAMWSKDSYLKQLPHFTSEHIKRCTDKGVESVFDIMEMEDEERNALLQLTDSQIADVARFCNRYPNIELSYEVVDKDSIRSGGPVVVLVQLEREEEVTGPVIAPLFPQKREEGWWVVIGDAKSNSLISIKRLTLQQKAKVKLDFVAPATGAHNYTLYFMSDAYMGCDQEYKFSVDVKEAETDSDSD
Sequence of Eukaryotic initiation factor 4A-III (P38919 whole entry): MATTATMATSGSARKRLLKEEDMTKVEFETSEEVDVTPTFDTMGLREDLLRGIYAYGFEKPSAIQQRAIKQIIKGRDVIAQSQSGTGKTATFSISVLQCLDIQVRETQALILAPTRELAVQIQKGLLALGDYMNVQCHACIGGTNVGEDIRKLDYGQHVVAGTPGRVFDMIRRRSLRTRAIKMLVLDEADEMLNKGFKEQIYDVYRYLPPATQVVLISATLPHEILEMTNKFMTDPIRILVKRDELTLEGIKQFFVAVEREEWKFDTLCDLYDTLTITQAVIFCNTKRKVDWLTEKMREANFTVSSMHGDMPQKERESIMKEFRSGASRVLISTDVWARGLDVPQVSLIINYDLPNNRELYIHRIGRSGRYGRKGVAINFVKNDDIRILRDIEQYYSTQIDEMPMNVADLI
Sequence of Eukaryotic initiation factor 4A-I (P60842 whole entry): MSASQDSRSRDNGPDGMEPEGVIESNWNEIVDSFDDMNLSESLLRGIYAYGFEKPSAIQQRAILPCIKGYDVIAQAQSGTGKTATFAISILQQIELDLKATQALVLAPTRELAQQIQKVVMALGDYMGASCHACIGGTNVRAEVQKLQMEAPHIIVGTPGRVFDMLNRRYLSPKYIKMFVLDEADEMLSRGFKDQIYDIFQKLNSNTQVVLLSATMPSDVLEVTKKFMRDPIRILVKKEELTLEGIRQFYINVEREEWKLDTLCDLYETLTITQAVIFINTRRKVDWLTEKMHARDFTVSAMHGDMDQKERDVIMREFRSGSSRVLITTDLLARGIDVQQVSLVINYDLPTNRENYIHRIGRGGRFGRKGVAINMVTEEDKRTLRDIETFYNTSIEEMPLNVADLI

`Cc1cc2c(cc1N1Cc3cn(Cc4ccccc4)c(=O)cc3N(C)C1=O)OC(c1ncccc1F)CC2` (racemic) showed a pIC50 [1] of less than 4.00.
`O=C1Nc2cc(=O)n(Cc3ccccc3)cc2CN1c1cccc(OCc2cncs2)c1` showed a pIC50 [2] of less than 4.00, a pIC50 [3] of less than 4.00 and a solubility (physchem [4]) of 49 µg/mL (≈ 110 µM). For the same compound, the Papp at 3 h, 10 µM (physchem [5]) was 13.1 ×10⁻⁶ cm/s, the chromatographic logD (physchem [6]) was 1.7 and the pIC50 [1] was 7.10. For the same compound, the pIC50 [7] was less than 4.00 and the pIC50 [8] was 5.89.
`O=C1Nc2cc(=O)n(Cc3ccccc3)cc2CN1c1cccc(OCc2ccccn2)c1` showed a solubility (physchem [4]) of 69 µg/mL (≈ 157 µM), a Papp at 3 h, 10 µM (physchem [5]) of 27.3 ×10⁻⁶ cm/s and a chromatographic logD (physchem [6]) of 2.
With `O=C1Nc2cc(=O)n(Cc3ccccc3)cc2CN1c1cccc(OCc2cccnc2)c1` the pIC50 [2] was less than 4.00, the pIC50 [3] was less than 4.00 and the solubility (physchem [4]) was 59 µg/mL (≈ 135 µM). For the same compound, the Papp at 3 h, 10 µM (physchem [5]) was 14.2 ×10⁻⁶ cm/s, the chromatographic logD (physchem [6]) was 1.9 and the pIC50 [1] was 6.74.
For `Cc1cc2c(cc1N1Cc3cn(Cc4ccccc4)c(=O)cc3NC1=O)OC(c1ncccc1F)CC2` (racemic), the pIC50 [2] was less than 4.00, the pIC50 [3] was less than 4.00 and the pIC50 [1] was 5.28. For the same compound, the pIC50 [7] was less than 4.00.
For `N=C1/C(=C/c2ccc(-c3cccc(C(=O)O)c3)o2)C(=O)N=C2SC(C3CCCCC3)=NN12`, the pIC50 [2] was 4.24, the pIC50 [3] was 4.49 and the pIC50 [1] was 5.28. The pIC50 [7] was 4.24.
Compound `Cc1cc2c(cc1N1Cc3cn(C)c(=O)cc3NC1=O)OC(c1ncccc1F)CC2` (racemic) has a pIC50 [1] of less than 4.00.
